Reference: patent publication US5614533A, “Substituted pipecolinic acid derivatives as HIV protease inhibitors” (Bio-Mega/Boehringer Ingelheim Research, Inc., priority 1994, dated 1997)

Key:
HIV protease = target: T1, HIV protease (Human immunodeficiency virus type 1 group M subtype B, UniProt P04585); test: Recombinant HIV Protease HPLC Assay; type: biochemical; details: 37°, 30 min, pH 5.5
T1 construct: HIV protease was expressed in E. coli; made in house; host or cells: E. coli (plasmid pBRT1 prt+)
In short: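 Recombinant protease from E. coli (pBRT1 prt+ construct), purified and diluted 1/38 for use, cleaves the decapeptide substrate VSFNFPQITL-NH2, containing an HIV polyprotein cleavage site. Inhibition of cleavage is monitored by HPLC.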

[1] = system: HIV (H9/HTLV-IIIB) in C8166 cells; test: plaque assay: inhibition of syncytia formation in HIV-infected C8166 cells; type: cell-based; details: Human immunodeficiency virus 1, IIIB, 72 h, 50% inhibition of syncytia formation
In short: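 C8166 cells (5×10^4/well) infected with 50× TCID50 H9/HTLV-IIIB in HEPES-buffered RPMI 1640 (pH 7.2), 10% FCS, with test compound in triplicate; 72 h at 37°, 5% CO2. Syncytia centers counted by phase-contrast microscopy; EC50 from percent inhibition versus serial dilutions by non-linear regression.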

| Structure (SMILES) | IC50 (HIV protease; Table VI) | EC50 ([1]; Table VI) | IC50 (HIV protease; Table VII) | EC50 ([1]; Table VII) | further results |
| --- | --- | --- | --- | --- | --- |
| Cc1cc(S[C@@H]2CCN(C[C@@H](O)[C@H](Cc3ccccc3)NC(=O)[C@@H](NC(=O)c3ccc4ccccc4n3)C(C)C)[C@H](C(=O)NC(C)(C)C)C2)nc(C)n1 [Table V, entry 22, N-tert-butyl-1-{2(R)-hydroxy-4-phenyl-3(S)-{{N-(2-quinolylinylcarbonyl)valyl}amino}butyl}-4(R)-{(2,6-dimethyl-4-pyrimidinyl)thio}piperidine-2(S)-carboxamide] | – | – | – | – | IC50 (HIV protease; Table V): 2.4 nM; EC50 ([1]; Table V): 11 nM |
| Cc1ccnc(S[C@@H]2CCN(C[C@@H](O)[C@H](Cc3ccccc3)NC(=O)[C@@H](NC(=O)c3ccc4ccccc4n3)C(C)C)[C@H](C(=O)NC(C)(C)C)C2)n1 [Table V, entry 23, N-tert-butyl-1-{2(R)-hydroxy-4-phenyl-3(S)-{{N-(2-quinolylinylcarbonyl)valyl}amino}butyl}-4(R)-{(4-methyl-2-pyrimidinyl)thio}piperidine-2(S)-carboxamide] | – | – | – | – | IC50 (HIV protease; Table V): 2.8 nM; EC50 ([1]; Table V): 16 nM |
| CC(C)[C@H](NC(=O)c1ccc2ccccc2n1)C(=O)N[C@@H](Cc1ccccc1)[C@H](O)CN1CC[C@@H](OCc2cccnc2)C[C@H]1C(=O)NC(C)(C)C [Table V, entry 24, N-tert-butyl-1-{2(R)-hydroxy-4-phenyl-3(S)-{{N-(2-quinolylinylcarbonyl)valyl}amino}butyl}-4(R)-(3-pyridinylmethoxy)piperidine-2(S)-carboxamide] | – | – | – | – | IC50 (HIV protease; Table V): 3.7 nM; EC50 ([1]; Table V): 53 nM |
| CC(C)(C)NC(=O)[C@@H]1C[C@H](Sc2ccccc2)CCN1C[C@@H](O)[C@H](Cc1ccccc1)NC(=O)[C@@H](NC(=O)c1ccc2ccccc2n1)C(C)(C)C [Table VI, entry 1, N-tert-butyl-1-{2(R)-hydroxy-4-phenyl-3(S)-{{N-(2-quinolylinylcarbonyl)tert-butylglycyl}amino}butyl}-4(R)-(phenylthio)piperidine-2(S)-carboxamide] | 3 nM | 12 nM | – | – | – |
| Cc1cc(C)nc(S[C@@H]2CCN(C[C@@H](O)[C@H](Cc3ccccc3)NC(=O)[C@H](CC(N)=O)NC(=O)c3ccc4ccccc4n3)[C@H](C(=O)NC(C)(C)C)C2)n1 [Table VI, entry 2, N-tert-butyl-1-{2(R)-hydroxy-4-phenyl-3(S)-{{N-(2-quinolylinylcarbonyl)asparaginyl}amino}butyl}-4(R)-{(4,6-dimethyl-2-pyrimidinyl)}thiopiperidine-2(S)-carboxamide] | 2.2 nM | 42 nM | – | – | – |
| CC(C)(C)NC(=O)[C@@H]1C[C@H](Sc2ncccn2)CCN1C[C@@H](O)[C@H](Cc1ccccc1)NC(=O)[C@H](CC(N)=O)NC(=O)c1ccc2ccccc2n1 [Table VI, entry 3, N-tert-butyl-1-{2(R)-hydroxy-4-phenyl-3(S)-{{N-(2-quinolylinylcarbonyl)asparaginyl}amino}butyl}-4(R)-(2-pyrimidinylthio)piperidine-2(S)-carboxamide] | 2.1 nM | 60 nM | – | – | – |
| CNC(=O)C[C@H](NC(=O)c1ccc2ccccc2n1)C(=O)N[C@@H](Cc1ccccc1)[C@H](O)CN1CC[C@@H](Oc2ccccc2)C[C@H]1C(=O)NC(C)(C)C [Table VI, entry 4, N-tert-butyl-1-{2(R)-hydroxy-4-phenyl-3(S)-{{N-(2-quinolylinylcarbonyl)(N^4-methyl)asparaginyl}amino}butyl}-4(R)-phenoxypiperidine-2(S)-carboxamide] | 3.7 nM | 13 nM | – | – | – |
| CC(C)(C)NC(=O)[C@@H]1C[C@H](SCc2cccnc2)CCN1C[C@@H](O)[C@H](Cc1ccccc1)NC(=O)[C@@H](NC(=O)c1ccc2ccccc2n1)C(C)(C)C [Table VI, entry 5, N-tert-butyl-1-{2(R)-hydroxy-4-phenyl-3(S)-{{N-(2-quinolylinylcarbonyl)tert-butylglycyl}amino}butyl}-4(R)-{(3-pyridinylmethyl)thio}piperidine-2(S)-carboxamide] | 2.2 nM | 8 nM | – | – | – |
| C[C@@H](O)[C@H](NC(=O)c1ccc2ccccc2n1)C(=O)N[C@@H](Cc1ccccc1)[C@H](O)CN1CC[C@@H](S(=O)(=O)c2ccccc2)C[C@H]1C(=O)NC(C)(C)C [Table VI, entry 6, N-tert-butyl-1-{2(R)-hydroxy-4-phenyl-3(S)-{{N-(2-quinolylinylcarbonyl)threonyl}amino}butyl}-4(R)-(phenylsulfonyl)piperidine-2(S)-carboxamide] | 2.6 nM | 61 nM | – | – | – |
| CC(C)(C)NC(=O)[C@@H]1C[C@H](S(=O)(=O)c2ccncc2)CCN1C[C@@H](O)[C@H](Cc1ccccc1)NC(=O)[C@@H](NC(=O)c1ccc2ccccc2n1)C(C)(C)C [Table VI, entry 7, N-tert-butyl-1-{2(R)-hydroxy-4-phenyl-3(S)-{{N-(2-quinolylinylcarbonyl)tert-butylglycyl}amino}butyl}-4(R)-(4-pyridinylsulfonyl)piperidine-2(S)-carboxamide] | 2.1 nM | 29 nM | – | – | – |
| CC(C)(C)NC(=O)[C@@H]1C[C@H](S(=O)(=O)c2ccccn2)CCN1C[C@@H](O)[C@H](Cc1ccccc1)NC(=O)[C@@H](NC(=O)c1ccc2ccccc2n1)C(C)(C)C [Table VI, entry 8, N-tert-butyl-1-{2(R)-hydroxy-4-phenyl-3(S)-{{N-(2-quinolylinylcarbonyl)tert-butylglycyl}amino}butyl}-4(R)-(2-pyridinylsulfonyl)piperidine-2(S)-carboxamide] | 2.9 nM | 44 nM | – | – | – |
| Cc1cccc(C)c1OCC(=O)N[C@@H](Cc1ccccc1)[C@H](O)CN1CC[C@@H](SCc2cccnc2)C[C@H]1C(=O)NC(C)(C)C [Table VII, entry 1, N-tert-Butyl-1-{3(S)-{{(2,6-dimethylphenoxy)acetyl}amino}-2(R)-hydroxy-4-phenylbutyl}-4(R)-{(3-pyridinylmethyl)thio}piperidine-2(S)-carboxamide] | – | – | 2.7 nM | 35 nM | – |
| Cc1cc(C)c(OCC(=O)N[C@@H](Cc2ccccc2)[C@H](O)CN2CC[C@@H](Sc3ccncc3)C[C@H]2C(=O)NC(C)(C)C)c(C)c1 [Table VII, entry 2, N-tert-butyl-1-{3(S)-{{(2,4,6-trimethylphenoxy)acetyl}amino}-2(R)-hydroxy-4-phenylbutyl}-4(R)-(4-pyridinylthio)piperidine-2(S)-carboxamide] | – | – | 3.7 nM | 47 nM | – |
| Cc1cccc(C)c1OCC(=O)N[C@@H](Cc1ccccc1)[C@H](O)CN1CC[C@@H](Sc2ccncc2)C[C@H]1C(=O)NC(C)(C)C [Table VII, entry 4, N-tert-butyl-1-{3(S)-{{(2,6-dimethylphenoxy)acetyl}amino}-2(R)-hydroxy-4-phenylbutyl}-4(R)-(4-pyridinylthio)piperidine-2(S)-carboxamide] | – | – | 3.1 nM | 20 nM | – |
| Cc1ccccc1OCC(=O)N[C@@H](Cc1ccccc1)[C@H](O)CN1CC[C@@H](Sc2ccncc2)C[C@H]1C(=O)NC(C)(C)C [Table VII, entry 5, N-tert-butyl-1-{3(S)-{{(2-methylphenoxy)acetyl}amino}-2(R)-hydroxy-4-phenylbutyl}-4(R)-(4-pyridinylthio)piperidine-2(S)-carboxamide] | – | – | 6.2 nM | 140 nM | – |
| CC(C)(C)NC(=O)[C@@H]1C[C@H](Sc2ccncc2)CCN1C[C@@H](O)[C@H](Cc1ccccc1)NC(=O)c1ccc(Cl)cc1Cl [Table VII, entry 6, N-tert-butyl-1-{3(S)-{{(2,4-dichlorophenyl)carbonyl}amino}-2(R)-hydroxy-4-phenylbutyl}-4(R)-(4-pyridinylthio)piperidine-2(S)-carboxamide] | – | – | 5.4 nM | 340 nM | – |
| CC(C)(C)NC(=O)[C@@H]1C[C@H](Sc2ccncc2)CCN1C[C@@H](O)[C@H](Cc1ccccc1)NC(=O)c1cc(Cl)ccc1Cl [Table VII, entry 7, N-tert-butyl-1-{3(S)-{{(2,5-dichlorophenyl)carbonyl}amino}-2(R)-hydroxy-4-phenylbutyl}-4(R)-(4-pyridinylthio)piperidine-2(S)-carboxamide] | – | – | 9.8 nM | 360 nM | – |
| CC(C)(C)NC(=O)[C@@H]1C[C@H](Sc2ccncc2)CCN1C[C@@H](O)[C@H](Cc1ccccc1)NC(=O)c1c(F)cccc1F [Table VII, entry 8, N-tert-butyl-1-{3(S)-{{(2,6-difluorophenyl)carbonyl}amino}-2(R)-hydroxy-4-phenylbutyl}-4(R)-(4-pyridinylthio)piperidine-2(S)-carboxamide] | – | – | 14 nM | 340 nM | – |
